Results as given in the NIST ThermoML archive (doi:10.1021/je060288t).

Columns and labels:
[1] = 101 kPa, Liquid; for viscosity: Capillary tube (Ostwald / Ubbelohde) method; for mass density: Pycnometric method
[2] = xn = mol fraction of the nth substance listed; conditions: 101 kPa, Liquid; for viscosity: Capillary tube (Ostwald / Ubbelohde) method; for mass density: Pycnometric method

C=C(C)C(=O)OCCO [2-hydroxyethyl 2-methyl-2-propenoate]
[1]
Conditions | mass density [kg/m3] | viscosity [mPa·s]
298.15 K | 1067.1 | 5.784
308.15 K | 1057.7 | 4.194
318.15 K | 1048.6 | 3.181

C=C(C)C(=O)O [2-methyl-2-propenoic acid] + COCC(C)O
[2]
Conditions | mass density, 298.15 K [kg/m3] | mass density, 308.15 K [kg/m3] | mass density, 318.15 K [kg/m3] | viscosity, 298.15 K [mPa·s] | viscosity, 308.15 K [mPa·s] | viscosity, 318.15 K [mPa·s]
x2 = 0 | 1009.5 | 999.4 | 989.2 | 1.267 | 1.078 | 0.945
x2 = 0.1 | 1000.9 | 991.8 | 982.4 | 1.376 | 1.163 | 1.002
x2 = 0.2 | 992 | 983.2 | 974.2 | 1.659 | 1.372 | 1.157
x2 = 0.3 | 983.5 | 974.9 | 966.1 | 1.982 | 1.577 | 1.312
x2 = 0.4 | 975.3 | 966.5 | 957.5 | 2.124 | 1.702 | 1.394
x2 = 0.5 | 966.6 | 957.8 | 948.9 | 2.233 | 1.762 | 1.429
x2 = 0.6 | 957.5 | 948.7 | 940.2 | 2.255 | 1.77 | 1.432
x2 = 0.7 | 947.3 | 938.6 | 930.3 | 2.14 | 1.685 | 1.361
x2 = 0.8 | 936.9 | 928.3 | 919.9 | 1.969 | 1.554 | 1.258
x2 = 0.9 | 926.2 | 917.8 | 909.1 | 1.809 | 1.431 | 1.165

COCC(C)O (configuration not stated) [1-methoxy-2-propanol] + C=C(C)C(=O)O
[2], x1 = 1
Conditions | mass density [kg/m3] | viscosity [mPa·s]
298.15 K | 915.9 | 1.707
308.15 K | 907.1 | 1.306
318.15 K | 896.9 | 1.069

C=C(C)C(=O)O [2-methyl-2-propenoic acid]
[1]
Conditions | mass density [kg/m3] | viscosity [mPa·s]
298.15 K | 1009.5 | 1.267
308.15 K | 999.4 | 1.078
318.15 K | 989.2 | 0.945

COCC(C)O (configuration not stated) [1-methoxy-2-propanol] + C=C(C)C(=O)OCc1ccccc1
[2], x1 = 1
Conditions | mass density [kg/m3] | viscosity [mPa·s]
298.15 K | 915.9 | 1.707
308.15 K | 907.1 | 1.306
318.15 K | 896.9 | 1.069

C=C(C)C(=O)OCc1ccccc1 [benzyl methacrylate]
[1]
Conditions | mass density [kg/m3] | viscosity [mPa·s]
298.15 K | 1034.7 | 2.302
308.15 K | 1025.8 | 1.885
318.15 K | 1017 | 1.58

C=C(C)C(=O)OCCO [2-hydroxyethyl 2-methyl-2-propenoate] + COCC(C)O
[2]
Conditions | mass density, 298.15 K [kg/m3] | mass density, 308.15 K [kg/m3] | mass density, 318.15 K [kg/m3] | viscosity, 298.15 K [mPa·s] | viscosity, 308.15 K [mPa·s] | viscosity, 318.15 K [mPa·s]
x2 = 0 | 1067.1 | 1057.7 | 1048.6 | 5.784 | 4.194 | 3.181
x2 = 0.1 | 1055.2 | 1046.2 | 1037.8 | 5.12 | 3.747 | 2.869
x2 = 0.2 | 1042.8 | 1034.1 | 1025.5 | 4.607 | 3.408 | 2.623
x2 = 0.3 | 1029.9 | 1021.2 | 1012.6 | 4.13 | 3.065 | 2.373
x2 = 0.4 | 1016.3 | 1007.5 | 998.9 | 3.656 | 2.757 | 2.148
x2 = 0.5 | 1001.7 | 993 | 984.4 | 3.256 | 2.477 | 1.947
x2 = 0.6 | 986.2 | 977.6 | 969 | 2.869 | 2.208 | 1.753
x2 = 0.7 | 969.8 | 961.5 | 952.8 | 2.496 | 1.944 | 1.559
x2 = 0.8 | 952.7 | 944.5 | 935.5 | 2.208 | 1.73 | 1.395
x2 = 0.9 | 934.8 | 926.6 | 917.3 | 1.933 | 1.528 | 1.237

COCC(C)O (configuration not stated) [1-methoxy-2-propanol]
[1]
Conditions | mass density [kg/m3] | viscosity [mPa·s]
298.15 K | 915.9 | 1.707
308.15 K | 907.1 | 1.306
318.15 K | 896.9 | 1.069

COCC(C)O (configuration not stated) [1-methoxy-2-propanol] + C=C(C)C(=O)OCCO
[2], x1 = 1
Conditions | mass density [kg/m3] | viscosity [mPa·s]
298.15 K | 915.9 | 1.707
308.15 K | 907.1 | 1.306
318.15 K | 896.9 | 1.069

C=C(C)C(=O)OCc1ccccc1 [benzyl methacrylate] + COCC(C)O
[2]
Conditions | mass density, 298.15 K [kg/m3] | mass density, 308.15 K [kg/m3] | mass density, 318.15 K [kg/m3] | viscosity, 298.15 K [mPa·s] | viscosity, 308.15 K [mPa·s] | viscosity, 318.15 K [mPa·s]
x2 = 0 | 1034.7 | 1025.8 | 1017 | 2.302 | 1.885 | 1.58
x2 = 0.1 | 1026.8 | 1018.1 | 1009.5 | 2.194 | 1.806 | 1.52
x2 = 0.2 | 1018.6 | 1010.1 | 1001.4 | 2.09 | 1.716 | 1.441
x2 = 0.3 | 1009.8 | 1001.4 | 992.5 | 1.99 | 1.628 | 1.364
x2 = 0.4 | 1000.2 | 991.8 | 982.8 | 1.895 | 1.538 | 1.291
x2 = 0.5 | 989.7 | 981.3 | 972.2 | 1.8 | 1.465 | 1.228
x2 = 0.6 | 978.1 | 969.7 | 960.5 | 1.731 | 1.406 | 1.166
x2 = 0.7 | 965.2 | 956.8 | 947.5 | 1.677 | 1.354 | 1.115
x2 = 0.8 | 950.9 | 942.3 | 932.7 | 1.633 | 1.312 | 1.084
x2 = 0.9 | 934.6 | 925.9 | 916 | 1.64 | 1.308 | 1.077
